{"source": "patent US20230173090A1", "about": "“COMPOSITIONS AND METHODS FOR MODULATING DOPAMINE RECEPTOR ACTIVITY” (The Regents of the University of California, priority 2020, published 2023)", "key": {"[1]": {"molecular_target": "T1, D1R (Homo sapiens, UniProt P21728)", "T1 construct": "expressed in transfected cells; host or cells: HEK293T (A1, A2); HEK293 (A26)", "test": "D1R-mediated GIRK channel activation assay in HEK293T cells (whole-cell electrophysiology)", "format": "cell-based", "experimental": "All constructs were cloned into mammalian expression vectors. For the receptor mediated-GIRK activation assay, HEK293T cells were seeded onto 18 mm coverslips and transiently transfected overnight with Lipofectamine 2000 and the following constructs: a receptor, a variant of the membrane-anchor (M; 0.7 µg), GIRK1(F137S) (0.7 µg), and tdTomato (0.2 µg). […] D1R, D5R, or opto-D1R were cotransfected with Gαis13 (0.35 µg), D3R with GαoA (0.7 µg), and M1R or mGluR1 with Gαiq5. Transfected cells were used for electrophysiology, imaging, or flow cytometry experiments.\nHEK293T cells were sparsely seeded and maintained in DMEM (Invitrogen) with 10% fetal bovine serum on poly-L-lysine-coated coverslips at 37° C. and 5% CO2. HEK293T cells were voltage clamped in whole-cell configuration 16-48 hours after transfection. […] GluK2 electrophysiology was performed in the presence of 0.3 mg/mL concanavalin A to prevent desensitization. […] Cells were voltage clamped to -60 or -80 mV using an Axopatch 200A (Molecular Devices) amplifier.\nFor all experiments, compounds were applied using a gravity-driven perfusion system and illumination was applied to the entire field of view using a Polychrome V monochromator (TILL Photonics) through a 20x objective (maximum 0.05 mW/mm^2 at 370 nm and 0.5 mW/mm^2 at 460 nm or 473 nm) or a DG4 (Sutter) through a 20x objective (maximum 0.06 mW/mm^2 at 370 nm and 0.6 mW/mm^2 at 445 nm). pClamp software was used for both data acquisition and control of illumination.\nThe selection criteria for electrophysiological experiments are that a cell (i) expresses the fluorescent protein transfection marker, and (ii) responds to agonist, indicating the presence of either receptor and GIRK or an LGIC. Cells were not excluded unless the recording was of poor quality (e.g., unstable baseline).\nData were analyzed using GraphPad Prism (GraphPad), Clampfit (Axon instruments), Origin (OriginLab), MATLAB, or ImageJ software. For dose-response curves, data were normalized to vehicle (0%) and DA (100%) and nonlinear regression analysis was performed using the sigmoidal dose-response function in GraphPad Prism. Statistical analyses were performed using GraphPad Prism. All values reported are mean ± S.E.M.\nFIGS. 9A-9H. Functional properties of untethered P-D1ago. (A) Schematic representation of a D1R-mediated G protein-coupled inwardly rectifying potassium (GIRK) channel assay in HEK293T cells. Agonist-induced receptor activation results in the recruitment of a heterotrimeric G protein containing the chimeric Gα subunit (Gαis) followed by the release of Gβγ, which activates GIRK channels and enhances inward-current. […] (E) Schematic representation of a highly sensitive D1R-mediated cAMP accumulation assay in HEK293T cells. Agonist-induced D1R activation results in Gs/olfrecruitment followed by the binding of its Gα subunit to adenylate cyclase (AC), which enhances the conversion of ATP to cAMP. cAMP binds the bioluminescence resonance energy transfer 1 (BRET′)-based cAMP sensor CAMYEL^87, resulting in a conformational change in its Epac domain that increases the distance and decreases BRET^1 between the donor Renilla luciferase (Rluc) and the acceptor YFP. […] Optimization and characterization of the D1R MP"}, "[2]": {"test_system": "membrane-anchor (M) (SNAP-tag)", "test": "Labeling of the membrane-anchor (M) at the cell surface: block of BG-Alexa647 binding, imaging and flow cytometry", "format": "cell-based", "conditions": "1 µM for 1 hour, then 1.5 µM BG-Alexa647 for 30 minutes", "experimental": "Untransfected or membrane-anchor (M) expressing HEK293T cells were labeled with 1.5 µM BG-TMR or BG-Alexa647 (NEB) for 20-30 minutes in the dark at 37° C. and 5% CO2 in a standard extracellular solution. Cells were then (i) mounted on an upright, scanning confocal microscope (Zeiss LSM 780) and imaged with a 20x objective or (ii) washed in DPBS and measured by flow cytometry (BD LSR II).\nFIGS. 8A-8D. Photophysical properties of P-D1ago. (A) Absorbance spectra of P-D1ago under blue light (460 nm; blue) and UV light (370 nm; grey). (B) P-D1ago repeatedly switches from its trans to cis isomer with UV light and back to trans with blue light. […] Cells were incubated for 1 hour with vehicle (left upper panels), 1 µM surface block (left middle panels), or 1 µM P-D1ago (left lower panels), and were then labeled for 30 minutes with 1.5 µM BG-Alexa647. Cytosolic tdTomato was used as a transfection marker, grey bar = […]. A summary of labeling according to flow cytometry is shown on the right. unpaired two-sided t-test, p = 0.60. n = 3-6 replicates per condition. (D) M labeling as a function of the concentration of P-D1ago. The M was incubated for 1 hour with increasing concentrations of P-D1ago, and then labeled for 30 minutes with 1.5 µM BG-Alexa647. Labeling was measured by flow cytometry. […] Labeling was measured by flow cytometry. n = 3-4 replicates per condition. […]"}, "[3]": {"test": "Photophysical properties (absorbance, photoswitching)", "format": "physicochemical", "experimental": "FIGS. 8A-8D. Photophysical properties of P-D1ago. (A) Absorbance spectra of P-D1ago under blue light (460 nm; blue) and UV light (370 nm; grey). (B) P-D1ago repeatedly switches from its trans to cis isomer with UV light and back to trans with blue light. […] Cells were incubated for 1 hour with vehicle (left upper panels), 1 µM surface block (left middle panels), or 1 µM P-D1ago (left lower panels), and were then labeled for 30 minutes with 1.5 µM BG-Alexa647. Cytosolic tdTomato was used as a transfection marker, grey bar = […]. A summary of labeling according to flow cytometry is shown on the right. unpaired two-sided t-test, p = 0.60. n = 3-6 replicates per condition. (D) M labeling as a function of the concentration of P-D1ago. The M was incubated for 1 hour with increasing concentrations of P-D1ago, and then labeled for 30 minutes with 1.5 µM BG-Alexa647. Labeling was measured by flow cytometry. (E) Time course of M labeling with P-D1ago. The M was incubated for different times with 1 µM P-D1ago, and then labeled for 30 minutes with 1.5 µM BG-Alexa647. Labeling was measured by flow cytometry. n = 3-4 replicates per condition. […] This contrasts with the commercially available permeant benzylguanine analog, cell block. […] Cytosolic mTurquoise was used as a transfection marker, grey bar = […]. A summary of labeling according to flow cytometry is shown on the right. unpaired two-sided t-test, ***p < 0.001. n = 3 replicates per condition."}}, "data": [{"molecule": "CCCN(CCc1ccc(N=Nc2ccc(NC(=O)CNC(=O)CCOCCOCCOCCOCCOCCOCCOCCOCCOCCOCCOCCOCCn3cc(CCC(=O)NCc4ccc(COc5nc(N)nc6nc[nH]c56)cc4)nn3)cc2)cc1)C1CCc2c(O)cccc2C1", "note": "(stereo not shown) [P-D1ago, Benzylguanine-azobenzene-PPHT]", "values": [{"measurement": "effect of untethered P-D1ago on D1R in the GIRK assay", "setting": "[1]; absence of the membrane-anchor (M), 1 µM or 10 µM, trans (blue light) or cis (UV light)", "value": "Neither 1 µM or 10 µM P-D1ago, concentrations that fully label the M (FIG. 8D), have any effect on the receptor"}, {"measurement": "D1R activation by P-D1ago tethered to MEAAAK", "setting": "[1]; tethered to MEAAAK (SEQ ID NO:16), blue light", "value": "only partially activates D1R"}, {"measurement": "D1R activation in the presence of sub-saturating DA", "setting": "[1]; tethered to MEAAAK, 100 nM and 1 µM DA", "value": "further activated D1R"}, {"measurement": "effect on the ability of DA to activate D1R", "setting": "[1]; tethered to MEAAAK, saturating DA (10 µM)", "value": "did not diminish the ability of DA to fully activate D1R"}, {"measurement": "photoactivation of D1R by P-D1ago tethered to the M", "setting": "[1]; tethered to the M, relative to a saturating concentration of DA", "value": "partially photoactivated with blue light (460 nm) and is deactivated with UV light (370 nm)"}, {"measurement": "binding to the M at the cell surface (block of BG-Alexa647 binding)", "setting": "[2]", "value": "almost completely"}, {"measurement": "binding to the M at the cell surface (block of BG-Alexa647 binding)", "setting": "[2]; listed as P-Dlago", "value": "binds efficiently"}, {"measurement": "wavelength switching trans-isomer to cis-isomer", "setting": "[3]; UV light", "value": 370, "unit": "nm"}, {"measurement": "wavelength switching cis-isomer back to trans-isomer", "setting": "[3]; blue light", "value": 460, "unit": "nm"}, {"measurement": "stability of the cis state", "setting": "[3]; in the dark after illumination with UV light", "value": "stable in the cis state in the dark"}]}]}
